Series [1] can be described thus: Liver Microsomal Clearance Assay (human). The class given is in vitro ADME. The settings on record: extraction ratio, human liver microsomes, 1 μM compound. On the procedure:
(§1) The in vitro microsomal clearance assay is designed to assess potential risks associated with hepatic metabolic stability of compounds. The test compound (1 μM) was incubated with liver microsomes (0.5 mg/mL) from different species (mouse, rat, monkey, dog and human) and NADPH (1 mM) in 100 mM potassium phosphate buffer at 37° C. At specific reaction time points (0, 5, 10 and 30 minutes), reaction aliquots were removed and reactions were terminated by addition of ice cold acetonitrile containing mass spectrometry internal standard. The samples were centrifuged and the supernatants were analyzed by LC-MS/MS. In vitro metabolic half-life (t1/2, min) and intrinsic clearance (CLint, μL/min/mg) are based on the rate and extent of metabolism of the test compound as determined by the disappearance of the parent compound from the reaction mixture. These values may be scaled to predict hepatic metabolic clearance rate (CLh, mL/min/kg) and extraction ratio (ER, expressed as a ratio of the predicted hepatic metabolic clearance to hepatic blood flow in that species). In general, compounds with high predictedCLint or ER in vitro are considered to be at high risk for exposure-limiting metabolism in vivo.
On the technique in general: Liver microsomes are a subcellular fraction often used to study metabolism.

Series [2] in a line: Liver Microsomal Clearance Assay (mouse). The class given is in vitro ADME. The settings on record: extraction ratio, mouse liver microsomes, 1 μM compound. On the procedure:
as §1

Series [3] has as its system A375 melanoma cell line (B-Raf V600E). Briefly: A375 Cellular Proliferation Assay (A375 CP). The class given is cell-based. The settings on record: Homo sapiens. On the procedure: A375-luc cells engineered to express luciferase are plated to 384-well white clear bottom plates as 1,500 cells/50 μl/well in DMEM containing 10% FBS. Compounds of the invention dissolved in 100% DMSO at appropriate concentrations are transferred to the cells by a robotic Pin Tool (100 nl). The cells are incubated for 2 days at […], then 25 μl of BrightGlo™ is added to each well and the plates are read by luminescence.

Another series concerns SW620 cells. Briefly: SW620 Cell Viability Assay (Cell Titer Glo). The class given is cell-based. The conditions noted are these: 10 to 0.002 μM, no MEK inhibitor. Here is the method:
The present invention also includes combinations of the BRaf inhibitors disclosed in this invention with other agents. In particular, the present invention provides for combinations with MEK1/2 inhibitors. FIG. 1 illustrates that the addition of a MEK small molecule inhibitor can reverse the induced ERK signaling, cell growth and transformation caused by a Raf small molecule inhibitor.
SW620 cells were seeded in 1640 RPMI+10% FBS at a density of 1500 cells per 96-well in black walled, clear bottom tissue culture treated plates. Test compounds were serially diluted in DMSO then added to the cells (final DMSO concentration of 0.1%) and incubated at 37° C. and 5% CO2 for 4 days. To measure cell viability, cell plates were brought to room temperature, culture media was removed, and 200 μl of Cell Titer-Glo reagent (Promega, kit components mixed as per the manufacturer's protocol then diluted 1:2 with growth media) was added to each well. Plates were shaken for 5 minutes, then incubated at room temperature for 5 minutes, and the luminescence was measured (Trilux, Perkin Elmer).
For orientation: ATP-based viability assays read luminescence as a measure of living cells.

A further series has as its system p38α MAP Kinase. Briefly: A549 p38α MAP Kinase Bright-Glo Reporter Gene Assay. The settings on record: Homo sapiens, IL-1 beta stimulated, IL-8 promoter luciferase reporter, read-out: A549 p38 RGA IC50. The class given is cell-based. On the procedure:
A549 cells were stably-transfected with the IL-8 promoter driven reporter, pGL3-IL8-Luc. The cells were plated at 4×10^5/ml into 384-well solid white plates (40 ul/well, 5% CD-FBS, 1×P/S, DMEM) and were incubated overnight (18-20 hours) at 37° C. Test compounds were serially diluted in DMSO, then 50 nl of test solution was added to the incubation (final DMSO concentration of 0.1%). After incubating with test compound for 30 min, cells were stimulated with 1 ng/ml IL-1 beta (10 ul of 5 ng/ml solution per well). Bright-Glo (25 ul/well) was added to measure luciferase expression after 7-8 hours of stimulation.
For orientation: A reporter such as luciferase makes a cellular process visible.

The mark [4] stands for this setting: A-375, 48 h, A375-luc cells, 2 days, read-out: A375 CP IC50.
[5] abbreviates: A-375, as repeated in p38 table, read-out: A375 CP IC50.

Molecules are shown by their SMILES. Where two headings read alike, the source gives them in different places.

A word on the IC50: it is the concentration needed to halve the response being measured. On to `CCCS(=O)(=O)Nc1cccc(-c2nn(C(C)C)cc2-c2ccnc(NC[C@H](C)NC(=O)OC)n2)c1F` [Compound 3, methyl N-[(2S)-1-[(4-{3-[2-fluoro-3-(propane-1-sulfonamido)phenyl]-1-(propan-2-yl)-1H-pyrazol-4-yl}pyrimidin-2-yl)amino]propan-2-yl]carbamate], for which the “ER Human” value in series [1] is 0.69. Moreover, the “ER Mouse” value in series [2] worked out at 0.85. In addition, the IC50 in series [3] (setting [4]) is 2 nM.
Turning to `COC(=O)N[C@@H](C)CNc1nccc(-c2cn(C(C)C)nc2-c2cc(Cl)cc(NS(C)(=O)=O)c2F)n1` [Compound 9, Methyl N-[(2S)-1-({4-[3-(5-chloro-2-fluoro-3-methanesulfonamidophenyl)-1-(propan-2-yl)-1H-pyrazol-4-yl]pyrimidin-2-yl}amino)propan-2-yl]carbamate], in the series with SW620 cells, the “effect on cellular proliferation (negative inhibition in FIG. 1)” value is “induction in cellular proliferation”. In addition, in series [1], the “ER Human” value is recorded as less than 0.21. Further, the “ER Mouse” value in series [2] amounted to 0.48. For the same compound, the IC50 in series [3] (setting [4]) came out at 2 nM; in series [3] (setting [5]) it was 2 nM; in series [3] (A-375, read-out: A375 IC50), 2 nM; in the series on p38α MAP Kinase, 2200 nM.
In the case of `CCCS(=O)(=O)Nc1cc(Cl)cc(-c2nn(C(C)C)cc2-c2ccnc(NC[C@H](C)NC(=O)OC)n2)c1F` [Compound 1, Methyl N-[(2S)-1-[(4-{3-[5-chloro-2-fluoro-3-(propane-1-sulfonamido)phenyl]-1-(propan-2-yl)-1H-pyrazol-4-yl]pyrimidin-2-yl)amino]propan-2-yl]carbamate], in series [1], the “ER Human” value turned out to be 0.66. In series [2], the “ER Mouse” value worked out at 0.79. Further, in series [3] (setting [4]), the concentration for half-maximal inhibition (IC50) was 2 nM.
The like results for `COC(=O)N[C@@H](C)CNc1nccc(-c2cn(C(C)C)nc2-c2cccc(NS(C)(=O)=O)c2F)n1` [Compound 4, methyl N-[(2S)-1-({4-[3-(2-fluoro-3-methanesulfonamidophenyl)-1-(propan-2-yl)-1H-pyrazol-4-yl]pyrimidin-2-yl}amino)propan-2-yl]carbamate] were, in that order, less than 0.31, 0.40 and 33 nM.
With `COC(=O)NC[C@H](C)Nc1nccc(-c2cn(C(C)C)nc2-c2cc(Cl)cc(NS(C)(=O)=O)c2F)n1` [Compound 32, Methyl N-[(2S)-2-({4-[3-(5-chloro-2-fluoro-3-methanesulfonamidophenyl)-1-(propan-2-yl)-1H-pyrazol-4-yl]pyrimidin-2-yl}amino)propyl]carbamate], the IC50 in series [3] (setting [4]) was determined as 31 nM; in series [3] (setting [5]), 31 nM; in the series on p38α MAP Kinase it was 690 nM.
Regarding `CNc1nccc(-c2cn(C(C)C)nc2-c2cc(Cl)cc(NS(C)(=O)=O)c2F)n1` [Compound 29, N-(5-chloro-2-fluoro-3-{4-[2-(methylamino)pyrimidin-4-yl]-1-(propan-2-yl)-1H-pyrazol-3-yl}phenyl)methanesulfonamide], the IC50 in series [3] (setting [4]) was 76 nM; in series [3] (setting [5]), 76 nM; in series [3] (A-375, read-out: A375 IC50), 76 nM; in the series with p38α MAP Kinase, 17000 nM.

(Values after patent US10568884B2, “Compounds and compositions as protein kinase inhibitors” (Array BioPharma, Inc., priority 2009, dated 2020).)
